Laboratory results from patent US20250346592A1 (Celgene Corporation, priority 2022, published 2025).

Molecular target: hPAD4 enzyme (Homo sapiens (Human), UniProt Q9UM07)
Experiment: RFMS2 assay (RapidFire mass spectrometry, TSTGGRQGSHH peptide substrate)
Type: biochemical
Settings: 35 nM recombinant human PAD4, 500 μM TSTGGRQGSHH peptide, 30 minutes at room temperature; read-out: RFMS 2 IC50
How it was run: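 Recombinant human PAD4 (35 nM) with 500 μM TSTGGRQGSHH peptide in HEPES pH 7.4, 200 mM NaCl, 2 mM CaCl2, 5 mM DTT, 1.2% DMSO, 30 min at room temperature; 3-fold compound series, top 20 μM. Quenched with formic acid; substrate and citrullinated product quantified by RapidFire MRM mass spectrometry for IC50.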

Chain of hPAD4 enzyme (Q9UM07 whole entry): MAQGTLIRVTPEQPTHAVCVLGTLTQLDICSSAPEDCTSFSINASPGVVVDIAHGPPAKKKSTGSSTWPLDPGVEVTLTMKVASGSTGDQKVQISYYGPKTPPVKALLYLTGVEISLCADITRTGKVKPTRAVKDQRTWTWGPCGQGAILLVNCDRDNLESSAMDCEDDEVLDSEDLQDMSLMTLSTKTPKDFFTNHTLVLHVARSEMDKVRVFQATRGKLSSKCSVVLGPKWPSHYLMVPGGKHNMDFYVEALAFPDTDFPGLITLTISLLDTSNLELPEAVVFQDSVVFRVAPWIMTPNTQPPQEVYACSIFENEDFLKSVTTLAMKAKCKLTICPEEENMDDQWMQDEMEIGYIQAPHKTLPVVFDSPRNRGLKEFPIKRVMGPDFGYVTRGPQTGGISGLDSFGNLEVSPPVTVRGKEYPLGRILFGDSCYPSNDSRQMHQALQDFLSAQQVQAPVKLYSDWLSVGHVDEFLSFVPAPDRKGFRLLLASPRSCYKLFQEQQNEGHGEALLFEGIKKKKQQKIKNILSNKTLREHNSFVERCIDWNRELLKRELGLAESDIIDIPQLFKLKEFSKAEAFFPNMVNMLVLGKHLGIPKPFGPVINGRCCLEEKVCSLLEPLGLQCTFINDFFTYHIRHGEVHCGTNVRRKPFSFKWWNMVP

With CCc1ccc2cc(-c3nc4cc5c(cc4n3C)CCN(C[C@@H](C)N)C5=O)n(CC3CC3)c2c1 [Example 39, (R)-6-(2-aminopropyl)-2-(1-(cyclopropylmethyl)-6-ethyl-1H-indol-2-yl)-1-methyl-1,6,7,8-tetrahydro-5H-imidazo[4,5-g]isoquinolin-5-one] as the compound, how does the IC50 read?
The IC50 was 101 to 500 nM.

For CNC(=O)c1ccc2cc(-c3nc4cc5c(cc4n3C)CCN(C[C@H](N)CF)C5=O)n(CC3CC3)c2n1 [Example 63, (S)-2-(6-(2-amino-3-fluoropropyl)-1-methyl-5-oxo-5,6,7,8-tetrahydro-1H-imidazo[4,5-g]isoquinolin-2-yl)-1-(cyclopropylmethyl)-N-methyl-1H-pyrrolo[2,3-b]pyridine-6-carboxamide], which IC50 is on record?
Its IC50 is 501 to 1000 nM.

Which IC50 does the source give for Cn1c(-c2cc3cccc(OCC4(C)CNC(=O)C4)c3n2CC2CC2)nc2cc3c(cc21)CCN(C[C@H](N)CF)C3=O (single isomer, unassigned) [Example 221] here?
The IC50 was 101 to 500 nM.

How did the IC50 turn out when Cn1c(-c2cc3cccc(OCC4CC(F)(F)C(=O)N4)c3n2CC2CC2)nc2cc3c(cc21)CCN(C[C@H](N)CF)C3=O (stereo partly drawn) [Example 185, 6-((S)-2-amino-3-fluoropropyl)-2-(1-(cyclopropylmethyl)-7-((4,4-difluoro-5-oxopyrrolidin-2-yl)methoxy)-1H-indol-2-yl)-1-methyl-1,6,7,8-tetrahydro-5H-imidazo[4,5-g]isoquinolin-5-one] was run?
The IC50 was 101 to 500 nM.

Which IC50 does the source give for CC(C)c1ccc2cc(-c3nc4cc5c(cc4n3C)CCN(C[C@@H](C)N)C5=O)n(CC3CC3)c2c1 [Example 38, (R)-6-(2-aminopropyl)-2-(1-(cyclopropylmethyl)-6-isopropyl-1H-indol-2-yl)-1-methyl-1,6,7,8-tetrahydro-5H-imidazo[4,5-g]isoquinolin-5-one] here?
The IC50 was 101 to 500 nM.

With COCCn1c(-c2nc3cc4c(cc3n2C)CCN(C[C@@H](C)N)C4=O)cc2cccc(OC)c21 [Example 88, (R)-6-(2-aminopropyl)-2-(7-methoxy-1-(2-methoxyethyl)-1H-indol-2-yl)-1-methyl-1,6,7,8-tetrahydro-5H-imidazo[4,5-g]isoquinolin-5-one] as the compound, how does the IC50 read?
The IC50 was 101 to 500 nM.

Which IC50 does the source give for Cn1c(-c2cc3cccc(OC[C@H]4COCCN4)c3n2CC2CC2)nc2cc3c(cc21)CCN(C[C@H](N)CF)C3=O [Example 188, 6-((S)-2-amino-3-fluoropropyl)-2-(1-(cyclopropylmethyl)-7-(((R)-morpholin-3-yl)methoxy)-1H-indol-2-yl)-1-methyl-1,6,7,8-tetrahydro-5H-imidazo[4,5-g]isoquinolin-5-one] here?
The IC50 was 501 to 1000 nM.

How did the IC50 turn out when Cn1c(-c2cc3cccc(OCc4ccnnc4)c3n2CC2CC2)nc2cc3c(cc21)CCN(C[C@H](N)CF)C3=O [Example 171, (S)-6-(2-amino-3-fluoropropyl)-2-(1-(cyclopropylmethyl)-7-(pyridazin-4-ylmethoxy)-1H-indol-2-yl)-1-methyl-1,6,7,8-tetrahydro-5H-imidazo [4,5-g]isoquinolin-5-one] was run?
The IC50 was 101 to 500 nM.

For COCC(C)c1ccc2cc(-c3nc4cc5c(cc4n3C)CCN(C[C@@H](C)N)C5=O)n(CC3CC3)c2c1 (single isomer, unassigned) [Example 41], which IC50 is on record?
Its IC50 is 101 to 500 nM.

Which IC50 does the source give for Cc1cc(Cn2c(-c3nc4cc5c(cc4n3C)CCN(C[C@H](N)CF)C5=O)cc3ccccc32)no1 [Example 100, (S)-6-(2-amino-3-fluoropropyl)-1-methyl-2-(1-((5-methylisoxazol-3-yl)methyl)-1H-indol-2-yl)-1,6,7,8-tetrahydro-5H-imidazo[4,5-g]isoquinolin-5-one] here?
The IC50 was greater than 1000 nM.

For COc1cccc2cc(-c3nc4cc5c(cc4n3C)CCN(C[C@H](N)CF)C5=O)n(Cc3cnccn3)c12 [Example 128, (S)-6-(2-amino-3-fluoropropyl)-2-(7-methoxy-1-(pyrazin-2-ylmethyl)-1H-indol-2-yl)-1-methyl-1,6,7,8-tetrahydro-5H-imidazo[4,5-g]isoquinolin-5-one], which IC50 is on record?
The IC50 was 101 to 500 nM.

For Cc1cccc2cc(-c3nc4cc5c(cc4n3C)CCN(C[C@@H](C)N)C5=O)n(CC3CC3)c12 [Example 17, (R)-6-(2-aminopropyl)-2-(1-(cyclopropylmethyl)-7-methyl-1H-indol-2-yl)-1-methyl-1,6,7,8-tetrahydro-5H-imidazo[4,5-g]isoquinolin-5-one], which IC50 is on record?
The IC50 was 101 to 500 nM.

For COc1c(F)ccc2cc(-c3nc4cc5c(cc4n3C)CCN(C[C@H](N)CF)C5=O)n(CC3CC3)c12 [Example 66, (S)-6-(2-amino-3-fluoropropyl)-2-(1-(cyclopropylmethyl)-6-fluoro-7-methoxy-1H-indol-2-yl)-1-methyl-1,6,7,8-tetrahydro-5H-imidazo[4,5-g]isoquinolin-5-one], which IC50 is on record?
Its IC50 is 101 to 500 nM.

Which IC50 does the source give for Cn1c(-c2cc3cccc(OC[C@H]4CNCCO4)c3n2CC2CC2)nc2cc3c(cc21)CCN(C[C@H](N)CF)C3=O [Example 160, 6-((S)-2-amino-3-fluoropropyl)-2-(1-(cyclopropylmethyl)-7-(((R)-morpholin-2-yl)methoxy)-1H-indol-2-yl)-1-methyl-1,6,7,8-tetrahydro-5H-imidazo[4,5-g]isoquinolin-5-one] here?
Its IC50 is 501 to 1000 nM.

How did the IC50 turn out when COc1cccc2cc(-c3nc4cc5c(cc4n3C)CCN(C[C@H](N)CF)C5=O)n(Cc3cccnn3)c12 [Example 126, (S)-6-(2-amino-3-fluoropropyl)-2-(7-methoxy-1-(pyridazin-3-ylmethyl)-1H-indol-2-yl)-1-methyl-1,6,7,8-tetrahydro-5H-imidazo[4,5-g]isoquinolin-5-one] was run?
Its IC50 is 101 to 500 nM.

With C[C@@H](CCO)Oc1cccc2cc(-c3nc4cc5c(cc4n3C)CCN(C[C@H](N)CF)C5=O)n(CC3CC3)c12 [Example 191, 6-((S)-2-amino-3-fluoropropyl)-2-(1-(cyclopropylmethyl)-7-(((S)-4-hydroxybutan-2-yl)oxy)-1H-indol-2-yl)-1-methyl-1,6,7,8-tetrahydro-5H-imidazo[4,5-g]isoquinolin-5-one] as the compound, how does the IC50 read?
The IC50 was 101 to 500 nM.

For C[C@@H](N)CN1CCc2cc3c(cc2C1=O)nc(-c1cc2ccncc2n1CC1CC1)n3C [Example 24, (R)-6-(2-aminopropyl)-2-(1-(cyclopropylmethyl)-1H-pyrrolo[2,3-c]pyridin-2-yl)-1-methyl-1,6,7,8-tetrahydro-5H-imidazo[4,5-g]isoquinolin-5-one], which IC50 is on record?
The IC50 was greater than 1000 nM.

For C[C@@H](N)CN1CCc2cc3c(cc2C1=O)nc(-c1cc2ccccc2n1Cc1ccccn1)n3C [Example 84, (R)-6-(2-aminopropyl)-1-methyl-2-(1-(pyridin-2-ylmethyl)-1H-indol-2-yl)-1,6,7,8-tetrahydro-5H-imidazo[4,5-g]isoquinolin-5-one], which IC50 is on record?
The IC50 was 101 to 500 nM.

For COc1cccc2cc(-c3nc4cc5c(cc4n3C)CCN(C[C@H](N)CF)C5=O)n(Cc3ncno3)c12 [Example 120, (S)-2-(1-((1,2,4-oxadiazol-5-yl)methyl)-7-methoxy-1H-indol-2-yl)-6-(2-amino-3-fluoropropyl)-1-methyl-1,6,7,8-tetrahydro-5H-imidazo[4,5-g]isoquinolin-5-one], which IC50 is on record?
The IC50 was 101 to 500 nM.

Cn1nccc1Cn1c(-c2nc3cc4c(cc3n2C)CCN(C[C@H](N)CF)C4=O)cc2ccccc21 [Example 96, (S)-6-(2-amino-3-fluoropropyl)-1-methyl-2-(1-((1-methyl-1H-pyrazol-5-yl)methyl)-1H-indol-2-yl)-1,6,7,8-tetrahydro-5H-imidazo[4,5-g]isoquinolin-5-one] was tested. Which IC50 did it give?
The IC50 was greater than 1000 nM.

Which IC50 does the source give for Cn1c(-c2cc3cccc(OC[C@H]4CCC(=O)N4)c3n2CC2CC2)nc2cc3c(cc21)CCN(C[C@H](N)CF)C3=O [Example 157, 6-((S)-2-amino-3-fluoropropyl)-2-(1-(cyclopropyl-methyl)-7-(((R)-5-oxopyrrolidin-2-yl)methoxy)-1H-indol-2-yl)-1-methyl-1,6,7,8-tetrahydro-5H-imidazo [4,5-g]isoquinolin-5-one] here?
The IC50 was 101 to 500 nM.

For COc1cccc2cc(-c3nc4cc5c(cc4n3C)CCN(C[C@H](N)CF)C5=O)n(Cc3nnco3)c12 [Example 116, (S)-2-(1-((1,3,4-oxadiazol-2-yl)methyl)-7-methoxy-1H-indol-2-yl)-6-(2-amino-3-fluoropropyl)-1-methyl-1,6,7,8-tetrahydro-5H-imidazo[4,5-g]isoquinolin-5-one], which IC50 is on record?
The IC50 was 101 to 500 nM.

With Cn1c(-c2cc3ccncc3n2CC2CC2)nc2cc3c(cc21)CCN(C[C@H](N)CF)C3=O [Example 52, (S)-6-(2-amino-3-fluoropropyl)-2-(1-(cyclopropylmethyl)-1H-pyrrolo[2,3-c]pyridin-2-yl)-1-methyl-1,6,7,8-tetrahydro-5H-imidazo[4,5-g]isoquinolin-5-one] as the compound, how does the IC50 read?
The IC50 was greater than 1000 nM.

Which IC50 does the source give for COc1cccc2cc(-c3nc4cc5c(cc4n3C)CCN(C[C@H](N)CF)C5=O)n(Cc3ccns3)c12 [Example 118, (S)-6-(2-amino-3-fluoropropyl)-2-(1-(isothiazol-5-ylmethyl)-7-methoxy-1H-indol-2-yl)-1-methyl-1,6,7,8-tetrahydro-5H-imidazo[4,5-g]isoquinolin-5-one] here?
The IC50 was 11 to 100 nM.

Which IC50 does the source give for Cn1c(-c2cc3cccc(OC[C@H]4CNC(=O)O4)c3n2CC2CC2)nc2cc3c(cc21)CCN(C[C@H](N)CF)C3=O [Example 168, (R)-5-(((2-(6-((S)-2-amino-3-fluoropropyl)-1-methyl-5-oxo-5,6,7,8-tetrahydro-1H-imidazo [4,5-g]isoquinolin-2-yl)-1-(cyclopropylmethyl)-1H-indol-7-yl)oxy)methyl)oxazolidin-2-one] here?
Its IC50 is 11 to 100 nM.

COc1cccc2cc(-c3nc4cc5c(cc4n3C)CCN(C[C@H](N)CF)C5=O)n(C(C)C)c12 [Example 109] was tested. Which IC50 did it give?
Its IC50 is greater than 1000 nM.

For Cc1cc(Cn2c(-c3nc4cc5c(cc4n3C)CCN(C[C@H](N)CF)C5=O)cc3ccccc32)on1 [Example 97, (S)-6-(2-amino-3-fluoropropyl)-1-methyl-2-(1-((3-methylisoxazol-5-yl)methyl)-1H-indol-2-yl)-1,6,7,8-tetrahydro-5H-imidazo[4,5-g]isoquinolin-5-one], which IC50 is on record?
The IC50 was 101 to 500 nM.
